In PubChem BioAssay (NCI) one finds TGI data, which are given here for 3 compounds.

Holding throughout (assay): NCI-60 cell line screen, 48 h
The test system of assay [1] is RPMI-8226 leukemia.
For assay [2], the system named is UACC-257 melanoma.
For assay [3], the system named is HL-60(TB) leukemia.
In assay [4] the test system is SW-620 colon.
Assay [5] relates to HCC-2998 colon.
Assay [6] relates to SN12C renal.
Assay [7] deals with SK-MEL-2 melanoma.
Assay [8] concerns EKVX NSCLC.
Assay [9] concerns M14 melanoma.
The subject of assay [10] is RXF 393 renal.
In assay [11] the test system is HT29 colon.
In assay [12] the test system is MDA-MB-435.
In assay [13] the test system is NCI-H23 lung.
In assay [14] the test system is SNB-75 CNS.
Assay [15] has as its system SK-OV-3 ovarian.
Assay [16] relates to NCI-H460 lung.
The test system of assay [17] is SF-268 CNS.
The subject of assay [18] is SF-295 CNS.
The test system of assay [19] is KM12 colon.
Assay [20] deals with TK-10 renal.

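Method: 48-hour compound exposure of cells in 96-well plates, five concentrations, linear interpolation of endpoints. Definition used: TGI = concentration required for complete inhibition of growth.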

As for `CN(C)c1ccc(C(=N/N=C2\C(=O)Nc3ccccc32)c2ccc(N(C)C)cc2)cc1`, the TGI in [1] was 3.46 µM; in assay [2], over 83.8 µM; in [3] it was 7.4 µM; in assay [4], over 100 µM; in assay [5] it was 17.5 µM; in [6], 46.8 µM. Further, the TGI is 2.72 µM in assay [7]; over 54.4 µM in [8]; 14.4 µM in assay [9]; 1.23 µM in assay [10]; 4.45 µM in assay [11]; 0.0567 µM in assay [12]. Further, the TGI was found to be 31.1 µM in [13]; 1.21 µM in [14]; 11.9 µM in [15]; 11.2 µM in assay [16]; 29.2 µM in assay [17]; 4.13 µM in assay [18]. In addition, the TGI in [19] came out at 33.1 µM; in assay [20], 28.2 µM.
Consider `CCC1(CC)C(=O)NN(C(=O)c2ccccc2)C1=O`, for which the TGI in assay [1], in [2], in [3], in assay [4], in assay [5] and in assay [6] was over 100 µM in each case. Also, the TGI in assay [7], in assay [8], in assay [9], in [10], in assay [11] and in assay [12] was over 100 µM in each case. Besides, the TGI in [13], in [14], in assay [15], in assay [16], in [17] and in assay [18] was over 100 µM in each case. Further, the TGI in assay [19] and in assay [20] was over 100 µM in each case.
As to `CS(=O)c1ncc2c(n1)-c1ccccc1OC2` (stereo not given), the TGI in assay [1], in assay [2], in assay [3], in [4], in [5] and in [6] was over 100 µM each time. Moreover, the TGI in assay [7], in assay [8], in assay [9], in [10], in [11] and in [12] was over 100 µM throughout. The TGI in assay [13], in assay [14], in assay [15], in [16], in assay [17] and in assay [18] was over 100 µM throughout. Besides, the TGI in [19] and in assay [20] was over 100 µM in each case.
